# In patent publication US8841325B2, “Immunomodulatory compounds for the restoration of vitamin D sensitivity in vitamin D resistant tumor cells” (Celgene Corporation, priority 2009, dated 2014):
# How the values were obtained:
# Type in all cases: cell-based
# MDA-MB-231 cells = assay: Annexin V/PI staining analysed by FACS; conditions: for necrosis and apoptosis activation (propidium iodide and Annexin V staining): 1 μM lenalidomide or 100 nM 1,25-D3 alone; for necrosis and apoptosis activation (propidium iodide and Annexin V staining) / apoptosis assessed by Annexin V or PI staining: up to 6 days; for apoptosis assessed by Annexin V or PI staining: single agent: 1 nM compound or 100 nM 1,25 D3 alone
# Method: Cells were seeded into 6 well plates at a density of 2×10^6 cells/well. Cells were treated with 1 μl/mL DMSO (control) or 1 nM 1-oxo-2-(2,6-dioxopiperidin-3-yl)-4-aminoisoindoline and 100 nM 1,25 D3, each alone or in combination for up to 6 days. Medium was removed by EDTA treatment, and cells were washed twice with ice-cold PBS. Cells were then resuspended into the buffer at a dilution of 1×10^6 cells/mL. 10^5 cells were then stained with Annexin V and Propidium Iodide (“PI”). Staining was analyzed by FACS. Results were expressed as the percentage of control Annexin V or PI staining where the control was cells treated with DMSO only. Results were from triplicate wells.
# To assess the nature of MDA-MB-231 cell death (apoptosis or necrosis) induced by co-treatment of lenalidomide/1, 25-D3 cells were seeded into 25 cm2 flasks at a density of 2×10^6 cells/flask. […] Medium was removed by EDTA treatment and cells were washed twice with ice-cold PBS. Cells were then resuspended into the buffer at a dilution of 1×10^6 cells/ml. 10^5 cells were then stained with Annexin V and Iodure Propidium. Staining was analysed by FACS.
# Cells were also treated with 0.1% DMSO as a control. […] Cells treated with 0.1% DMSO were used as a control (day 0). Cell lysates were probed for cleaved-PARP(C-PARP) and total PARP (T-PARP). Data shown are representative of three identical experiments.
# HBL-100 cells [1] = assay: Cell viability by neutral red assay, HBL-100; conditions: up to 6 days
# Method: After 6 days treatment, cells were seeded into 24 well plates at a density of 1×10^4 cells/wells. After 24 h, cells were treated with reagents or vehicle for up to six days. At the end of the incubation period, medium was removed and cells were incubated with neutral red solution (40 μg/ml in phenol red and serum free DMEM) for 2 h at 37° C. After removal of the neutral red solution, wells were rinsed once with 1 ml 4% formal saline containing 0.5% CaCl2. Plates were inverted on paper towel to drain and 200 μl of elution fluid (1% acetic acid in 50% ethanol) was added. Following incubation at room temperature for 30 min with gentle shaking, absorbance at 550 nm was determined
# In order to validate the previous results obtained in MDA-MB-231 cells, two other vitamin D resistant cell lines MCF-7/VD^R and HBL-100 cells, were investigated. First the effect of lenalidomide on these cells lines were investigated. To this end, cells were treated for up to 6 days with different concentrations of lenalidomide (0 μM up to 10 μM). Cell viability was measured by neutal red dye assay (FIG. 13).
# (§1) More particularly, FIG. 13 illustrates the effects of lenalidomide treatment on MCF-7/VDR and HBL-100 viability. MCF-7/VDR and HBL-100 cells were treated for up to 6 days with different concentrations of lenalidomide (0 μM up to 10 μM). Cell viability was measured by neutral red dye assay. Results are mean of three independent experiments (each made in quadruplicate).
# Cell viability was measured by neutral red dye assay (FIG. 14).
# as §1, with “14” for “13”, “lenalidomide/1, 25-D3 co-treatment” for “lenalidomide treatment”, “(0.01” for “(0”, “1 μM) alone or in combination with different concentrations of 1, 25-D3 (0 for up to 1000 nM).” for “10 μM).”
# To accomplish this, cells were treated for up to 6 days with different concentrations of a BCL-2 inhibitor, ABT-263 ([…]). Non-treated cells were used as a control. After 6 days of treatment, cell viability was measured by neutral red assay (FIG. 16). In the three cell lines, BCL-2 inhibition leads to cell death. The IC50 is almost equivalent in all cell lines (1 μM+/−0.2 μM).
# More particularly, FIG. 16 illustrates the effects of BCL-2 inhibition on MCF-7VD^R and HBL-100 viability. MDA-MB-231, MCF-7/VD^R and HBL-100 cells were treated for up to 6 days with different concentrations of ABT-263 (0.2 up to 20 μM). Non-treated cells were used as a control. After 6 days of treatment, cell viability was measured by neutral red assay. Results are mean of three independent experiments (each made in quadruplicate).
# HBL-100 cells [2] = assay: BCL-2 expression by immunoblotting, HBL-100; conditions: 1 μM lenalidomide and 100 nM 1,25-D3 alone or in combination, 6 days, FIG. 15
# Method: It has been shown in this paper that BCL-2 inhibition of expression seems to be a key event for the restoration of a sensitive vitamin D sensitive phenotype in MDA-MB-231. […] Cells were also treated with 0.1% DMSO as a control. Whole cells extracts were prepared and analysed by immuoblotting BCL-2 antibody. β-actin was used as a loading control.
# More particularly, FIG. 15 illustrates the effects of co-treatment lenalidomide/1, 25-D3 on BCL-2 expression in MCF-7VDR and HBL-100 cells. MCF-7/VDR and HBL-100 cells were treated for up to 6 days with 1 μM lenalidomide and 100 nM 1, 25-D3 alone or in combination. Cells were also treated with 0.1% DMSO a control. Whole proteins were extracted and probes for BCL-2. β-actin was used as a loading control. Representative blots for the three experiments are shown.
# [3] = lenalidomide 0.01-1 μM alone or in combination with 1,25-D3 0-1000 nM, FIG. 14, p>0.05
SMILES,necrosis and apoptosis activation (propidium iodide and Annexin V staining) (MDA-MB-231 cells; FIG. 8B),apoptosis assessed by Annexin V or PI staining (MDA-MB-231 cells; FIG. 5),differences in viability (HBL-100 cells [1]; [3]),effects on BCL-2 expression (HBL-100 cells [2]),"apoptosis assessed by Annexin V and PI staining (MDA-MB-231 cells; 1 nM compound in combination with 100 nM 1,25 D3, up to 6 days, FIG. 5)","Annexin V staining (MDA-MB-231 cells; 1 μM lenalidomide co-treatment with 100 nM 1,25-D3, up to 6 days, FIG. 8B)","differences in viability (HBL-100 cells [1]; lenalidomide 0 μM up to 10 μM, FIG. 13, p>0.05)"
"C=C1/C(=C\C=C2/CCC[C@]3(C)[C@@H]([C@H](C)CCCC(C)(C)O)CC[C@@H]23)C[C@@H](O)C[C@@H]1O [1,25-D3, 1α,25-dihydroxyvitamin D3]",no effects,no significant increase in apoptosis,No significant differences,no effects,–,–,–
"Nc1cccc2c1CN(C1CCC(=O)NC1=O)C2=O (centres unmarked) [Lenalidomide, 1-oxo-2-(2,6-dioxopiperidin-3-yl)-4-aminoisoindoline]",no effects,no significant increase in apoptosis,No significant differences,no effects,significant increase in apoptosis,Annexin V staining was observed,No significant differences
